Consider 26 molecules from US9586961B2, “Homopiperazine derivatives as protein tyrosine kinase inhibitors and pharmaceutical use thereof” (LEO PHARMA A/S, priority 2010, dated 2017).

Assay type in all cases: biochemical
The target of experiment [1] is T1, JAK1 (Homo sapiens, UniProt P23458).
T1 construct: JAK1 (aa 850-1154) and TYK2 (aa 871-1187) are expressed with an N-terminally fused GST-tag; GST (N); purchased Carna Biosciences, Inc; host or cells: baculovirus expression system
In words: JAK1 kinase assay (HTRF, inhibition of phosphorylation of a synthetic peptide). To be noted: catalytic domain aa 850-1154, GST-tag; 7 μM ATP (Km); read-out: JAK1 kinase inhibitory activity (EC50). Summed up: (§1)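 Baculovirus-expressed catalytic domains (GST-JAK1 aa 850-1154, GST-TYK2 aa 871-1187, His-JAK2, His-JAK3) phosphorylate 1 μM biotin-TK peptide 20-30 min at RT in 50 mM Hepes pH 7.0 with ATP at Km: JAK1 7 μM, JAK2 4 μM, JAK3 2 μM, TYK2 13 μM; 0.75% DMSO. Stopped with EDTA, HTRF read overnight.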
(In general: Time-resolved FRET reads energy transfer from a long-lived donor to a nearby acceptor.)

Experiment [2] concerns the target T2, JAK2 (Homo sapiens, UniProt O60674).
T2 construct: All four purified enzymes contain only the catalytic domain; His (N); purchased Carna Biosciences, Inc; host or cells: baculovirus expression system
In words: JAK2 kinase assay (HTRF, inhibition of phosphorylation of a synthetic peptide). To be noted: catalytic domain, His-tag; 4 μM ATP (Km); read-out: JAK2 kinase inhibitory activity (EC50). Summed up:
as §1

In experiment [3] the target is T3, JAK3 (Homo sapiens, UniProt P52333).
T3 construct: All four purified enzymes contain only the catalytic domain; His (N); purchased Carna Biosciences, Inc; host or cells: baculovirus expression system
In words: JAK3 kinase assay (HTRF, inhibition of phosphorylation of a synthetic peptide). To be noted: catalytic domain, His-tag; 2 μM ATP (Km); read-out: JAK3 kinase inhibitory activity (EC50). The method, boiled down: as §1

The term EC50 denotes the concentration that produces a half-maximal response.

T1 sequence (P23458 850-1154): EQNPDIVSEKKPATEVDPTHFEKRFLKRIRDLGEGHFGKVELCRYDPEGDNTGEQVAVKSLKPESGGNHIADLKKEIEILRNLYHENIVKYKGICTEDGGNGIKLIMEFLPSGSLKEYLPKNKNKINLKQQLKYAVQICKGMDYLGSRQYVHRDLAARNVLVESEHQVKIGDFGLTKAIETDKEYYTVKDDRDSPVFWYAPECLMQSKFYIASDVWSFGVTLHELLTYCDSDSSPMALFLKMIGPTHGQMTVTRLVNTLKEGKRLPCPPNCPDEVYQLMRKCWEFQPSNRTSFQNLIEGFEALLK
T2 sequence (O60674 849-1124 limits assumed): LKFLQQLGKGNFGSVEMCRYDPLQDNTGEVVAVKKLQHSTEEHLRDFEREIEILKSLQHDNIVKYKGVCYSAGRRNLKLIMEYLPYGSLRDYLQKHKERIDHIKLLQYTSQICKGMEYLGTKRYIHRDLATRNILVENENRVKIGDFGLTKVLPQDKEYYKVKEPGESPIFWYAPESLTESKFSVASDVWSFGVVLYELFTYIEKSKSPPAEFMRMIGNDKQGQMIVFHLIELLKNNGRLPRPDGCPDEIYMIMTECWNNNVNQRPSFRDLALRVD
T3 sequence (P52333 822-1111 limits assumed): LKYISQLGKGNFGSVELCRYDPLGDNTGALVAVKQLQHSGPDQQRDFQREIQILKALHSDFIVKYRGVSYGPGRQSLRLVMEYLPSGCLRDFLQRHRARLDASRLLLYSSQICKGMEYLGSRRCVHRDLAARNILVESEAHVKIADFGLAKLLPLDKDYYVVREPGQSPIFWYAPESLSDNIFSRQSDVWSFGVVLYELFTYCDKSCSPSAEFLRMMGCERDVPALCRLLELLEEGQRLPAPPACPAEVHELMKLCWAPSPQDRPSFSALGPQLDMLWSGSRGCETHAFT

On to `O=C(c1cscn1)N1CCN(c2ncnc3[nH]ccc23)CC2(CC2)C1` [Example 216, [5-(7H-pyrrolo[2,3-d]pyrimidin-4-yl)-5,8-diazaspiro[2.6]nonan-8-yl]-thiazol-4-yl-methanone], for which the EC50 in experiment [1], in experiment [2] and in experiment [3] was 100 to 1000 nM each time.
Consider `Cc1cc(CC(=O)N2CCCN(c3ncnc4[nH]ccc34)CC23CC3)on1` [Example 217, 2-(3-methylisoxazol-5-yl)-1-[5-(7H-pyrrolo[2,3-d]pyrimidin-4-yl)-5,9-diazaspiro[2.6]nonan-9-yl]ethanone], for which the EC50 in experiment [1] was 100 to 1000 nM; in experiment [2], 100 to 1000 nM; in experiment [3] it was above 1000 nM.
Consider `CN(CC#N)C(=O)N1CCN(c2ncnc3[nH]ccc23)CC2(CC2)C1` [Example 218, N-(cyanomethyl)-N-methyl-5-(7H-pyrrolo[2,3-d]pyrimidin-4-yl)-5,8-diazaspiro[2.6]nonane-8-carboxamide], for which the EC50 in experiment [1] was 100 to 1000 nM; in experiment [2], below 100 nM; in experiment [3] it was 100 to 1000 nM.
With `N#CCN(CC#N)C(=O)N1CCN(c2ncnc3[nH]ccc23)CC2(CC2)C1` [Example 219, N,N-bis(cyanomethyl)-5-(7H-pyrrolo[2,3-d]pyrimidin-4-yl)-5,8-diazaspiro[2.6]nonane-8-carboxamide], the figures for the EC50 in experiment [1], in experiment [2] and in experiment [3] were 100 to 1000 nM, below 100 nM and 100 to 1000 nM, respectively.
Regarding `CN(CCC#N)C(=O)N1CCN(c2ncnc3[nH]ccc23)CC2(CC2)C1` [Example 220, N-(2-cyanoethyl)-N-methyl-5-(7H-pyrrolo[2,3-d]pyrimidin-4-yl)-5,8-diazaspiro[2.6]nonane-8-carboxamide], the EC50 in experiment [1], in experiment [2] and in experiment [3] was 100 to 1000 nM in each case.
Consider `N#C[C@H]1CCCN1C(=O)N1CCN(c2ncnc3[nH]ccc23)CC2(CC2)C1` [Example 221, (2R)-1-[5-(7H-pyrrolo[2,3-d]pyrimidin-4-yl)-5,8-diazaspiro[2.6]nonane-8-carbonyl]pyrrolidine-2-carbonitrile], for which the EC50 is 100 to 1000 nM in experiment [1], below 100 nM in experiment [2] and 100 to 1000 nM in experiment [3].
Regarding `N#C[C@@H]1CCCN1C(=O)N1CCN(c2ncnc3[nH]ccc23)CC2(CC2)C1` [Example 222, (2S)-1-[5-(7H-pyrrolo[2,3-d]pyrimidin-4-yl)-5,8-diazaspiro[2.6]nonane-8-carbonyl]pyrrolidine-2-carbonitrile], the EC50 in experiment [1] is 100 to 1000 nM; in experiment [2], below 100 nM; in experiment [3] it was 100 to 1000 nM.
For the molecule `CC(C)N(C)C(=O)N1CCN(c2ncnc3[nH]ccc23)CC2(CC2)C1` [Example 223, N-isopropyl-N-methyl-5-(7H-pyrrolo[2,3-d]pyrimidin-4-yl)-5,8-diazaspiro[2.6]nonane-8-carboxamide], the EC50 in experiment [1], in experiment [2] and in experiment [3] was 100 to 1000 nM in each case.
In the case of `CCN(CCC#N)C(=O)N1CCN(c2ncnc3[nH]ccc23)CC2(CC2)C1` [Example 224, N-(2-cyanoethyl)-N-ethyl-5-(7H-pyrrolo[2,3-d]pyrimidin-4-yl)-5,8-diazaspiro[2.6]nonane-8-carboxamide], the figures for the EC50 in experiment [1], in experiment [2] and in experiment [3] were above 1000 nM, 100 to 1000 nM and 100 to 1000 nM, respectively.
For the molecule `N#CCCN(CCC#N)C(=O)N1CCN(c2ncnc3[nH]ccc23)CC2(CC2)C1` [Example 225, N,N-bis(2-cyanoethyl)-5-(7H-pyrrolo[2,3-d]pyrimidin-4-yl)-5,8-diazaspiro[2.6]nonane-8-carboxamide], the values for the EC50 in experiment [1], in experiment [2] and in experiment [3] were above 1000 nM, 100 to 1000 nM and 100 to 1000 nM, respectively.
Regarding `O=C(Cc1nnn[nH]1)N1CCCN(c2ncnc3[nH]ccc23)CC12CC2` [Example 226, 1-[5-(7H-pyrrolo[2,3-d]pyrimidin-4-yl)-5,9-diazaspiro[2.6]nonan-9-yl]-2-(1H-tetrazol-5-yl)ethanone], the values for the EC50 in experiment [1], in experiment [2] and in experiment [3] were above 1000 nM, 100 to 1000 nM and above 1000 nM, respectively.
In the case of `O=C(c1cscn1)N1CCCN(c2ncnc3[nH]ccc23)CC12CC2` [Example 227, [5-(7H-pyrrolo[2,3-d]pyrimidin-4-yl)-5,9-diazaspiro[2.6]nonan-9-yl]-thiazol-4-yl-methanone], the EC50 is 100 to 1000 nM in experiment [1], below 100 nM in experiment [2] and 100 to 1000 nM in experiment [3].
`O=C(c1nc[nH]n1)N1CCCN(c2ncnc3[nH]ccc23)CC12CC2` [Example 228, [5-(7H-pyrrolo[2,3-d]pyrimidin-4-yl)-5,9-diazaspiro[2.6]nonan-9-yl]-(1H-1,2,4-triazol-3-yl)methanone]: the EC50 in experiment [1] is 100 to 1000 nM; in experiment [2], 100 to 1000 nM; in experiment [3], above 1000 nM.
In the case of `Cc1sncc1C(=O)N1CCN(c2ncnc3[nH]ccc23)CC2(CC2)C1` [Example 229, (5-methylisothiazol-4-yl)-[5-(7H-pyrrolo[2,3-d]pyrimidin-4-yl)-5,8-diazaspiro[2.6]nonan-8-yl]methanone], the EC50 in experiment [1] was 100 to 1000 nM; in experiment [2] it was 100 to 1000 nM; in experiment [3], above 1000 nM.
With `Cc1sncc1C(=O)N1CCCN(c2ncnc3[nH]ccc23)CC12CC2` [Example 230, (5-methylisothiazol-4-yl)-[5-(7H-pyrrolo[2,3-d]pyrimidin-4-yl)-5,9-diazaspiro[2.6]nonan-9-yl]methanone], the figures for the EC50 in experiment [1], in experiment [2] and in experiment [3] were 100 to 1000 nM, below 100 nM and 100 to 1000 nM, respectively.
As for `O=C(c1n[nH]c(Cl)n1)N1CCN(c2ncnc3[nH]ccc23)CC2(CC2)C1` [Example 231, (5-chloro-1H-1,2,4-triazol-3-yl)-[5-(7H-pyrrolo[2,3-d]pyrimidin-4-yl)-5,8-diazaspiro[2.6]nonan-8-yl]methanone], the EC50 in experiment [1], in experiment [2] and in experiment [3] was 100 to 1000 nM in each case.
Take `O=C(c1n[nH]c(Cl)n1)N1CCCN(c2ncnc3[nH]ccc23)CC12CC2` [Example 232, (5-chloro-1H-1,2,4-triazol-3-yl)-[5-(7H-pyrrolo[2,3-d]pyrimidin-4-yl)-5,9-diazaspiro[2.6]nonan-9-yl]methanone]: the EC50 was 100 to 1000 nM in experiment [1], below 100 nM in experiment [2] and 100 to 1000 nM in experiment [3].
For `Cc1cc(C(=O)N2CCN(c3ncnc4[nH]ccc34)CC3(CC3)C2)sn1` [Example 233, (3-methylisothiazol-5-yl)-[5-(7H-pyrrolo[2,3-d]pyrimidin-4-yl)-5,8-diazaspiro[2.6]nonan-8-yl]methanone], the EC50 in experiment [1] was 100 to 1000 nM; in experiment [2] it was 100 to 1000 nM; in experiment [3], above 1000 nM.
Regarding `Cc1cc(C(=O)N2CCCN(c3ncnc4[nH]ccc34)CC23CC3)sn1` [Example 234, (3-methylisothiazol-5-yl)-[5-(7H-pyrrolo[2,3-d]pyrimidin-4-yl)-5,9-diazaspiro[2.6]nonan-9-yl]methanone], the EC50 in experiment [1] was above 1000 nM; in experiment [2], 100 to 1000 nM; in experiment [3], above 1000 nM.
As to `O=C(c1ccns1)N1CCN(c2ncnc3[nH]ccc23)CC2(CC2)C1` [Example 235, isothiazol-5-yl-[5-(7H-pyrrolo[2,3-d]pyrimidin-4-yl)-5,8-diazaspiro[2.6]nonan-8-yl]methanone], the EC50 in experiment [1], in experiment [2] and in experiment [3] was 100 to 1000 nM throughout.
`O=C(c1cncs1)N1CCN(c2ncnc3[nH]ccc23)CC2(CC2)C1` [Example 239, [5-(7H-pyrrolo[2,3-d]pyrimidin-4-yl)-5,8-diazaspiro[2.6]nonan-8-yl]-thiazol-5-yl-methanone]: the EC50 in experiment [1], in experiment [2] and in experiment [3] was 100 to 1000 nM each time.
Regarding `O=C(c1cncs1)N1CCCN(c2ncnc3[nH]ccc23)CC12CC2` [Example 240, [5-(7H-pyrrolo[2,3-d]pyrimidin-4-yl)-5,9-diazaspiro[2.6]nonan-9-yl]-thiazol-5-yl-methanone], the EC50 in experiment [1], in experiment [2] and in experiment [3] was 100 to 1000 nM in each case.
`Cc1cnc(C(=O)N2CCN(c3ncnc4[nH]ccc34)CC3(CC3)C2)s1` [Example 241, (5-methylthiazol-2-yl)-[5-(7H-pyrrolo[2,3-d]pyrimidin-4-yl)-5,8-diazaspiro[2.6]nonan-8-yl]methanone]: the EC50 in experiment [1], in experiment [2] and in experiment [3] was 100 to 1000 nM each time.
On to `Cc1nocc1C(=O)N1CCN(c2ncnc3[nH]ccc23)CC2(CC2)C1` [Example 244, (3-methylisoxazol-4-yl)-[5-(7H-pyrrolo[2,3-d]pyrimidin-4-yl)-5,8-diazaspiro[2.6]nonan-8-yl]methanone], for which the EC50 in experiment [1], in experiment [2] and in experiment [3] was 100 to 1000 nM each time.
As to `Cc1nocc1C(=O)N1CCCN(c2ncnc3[nH]ccc23)CC12CC2` [Example 245, (3-methylisoxazol-4-yl)-[5-(7H-pyrrolo[2,3-d]pyrimidin-4-yl)-5,9-diazaspiro[2.6]nonan-9-yl]methanone], the EC50 in experiment [1] was above 1000 nM; in experiment [2] it was 100 to 1000 nM; in experiment [3], above 1000 nM.
Consider `Cc1ncsc1CC(=O)N1CCN(c2ncnc3[nH]ccc23)CC2(CC2)C1` [Example 246, 2-(4-methylthiazol-5-yl)-1-[5-(7H-pyrrolo[2,3-d]pyrimidin-4-yl)-5,8-diazaspiro[2.6]nonan-8-yl]ethanone], for which the EC50 is 100 to 1000 nM in experiment [1], 100 to 1000 nM in experiment [2] and above 1000 nM in experiment [3].
